From PubChem BioAssay AID1919003 (Molecular Pharmacology Branch, DTP, NCI, 2023)

System: 786-0 complex spheroids with HUVEC/MSC, growth % test/control
Experiment: Anticancer human tumor 786-0 cell line growth inhibition [AhR];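 note: compound exposure lasted seven days before the read-out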
Details: for IC50: curve of first compound; for viability, T/C: stronger effect = lower value
Description: Multicellular complex tumor spheroid response to aryl hydrocarbon receptor antagonists in combination with a variety of drugs and investigational agents in selected tumor cell lines
The current study was undertaken to assess response to aryl hydrocarbon receptor antagonists in combination with standard-of-care drugs and investigational agents in solid tumor complex spheroid models. Complex spheroids include a stromal component modeled by human endothelial cells (HUVEC) and fibroblasts modeled by human mesenchymal stem cells (MSCs). The concentration ranges selected for each drug and investigational agent were based upon clinically achievable concentrations if the clinical Cmax of the agent was known.
Compounds. The drugs and investigational agents: BAY 2416964 (NSC825713), GNF351 (NSC835774), CH-223191 (NSC835775), CPI-455 (NSC825282), aza-TdCyd (NSC777586), decitabine (NSC127716), belinostat (NSC758774), entinostat (NSC756642), pevonedistat (NSC761192), tazemetostat (NSC777109), talazoparib (NSC765396), olaparib (NSC753686), selinexor (NSC780203), nedisertib (M3814, NSC802822), bortezomib (NSC756655), venetoclax (NSC766270), doxorubicin (NSC123127), elimusertib (BAY189344, NSC800525), ceralasertib (AZD6738, NSC777638), TAK-243 (NSC785004), alisertib (NSC759677), etoposide (NSC141540), topotecan (NSC609699), eribulin (NSC707389), gemcitabine (NSC613327), carboplatin (NSC241240), cisplatin (NSC119875), and SN-38 (NSC673596) were obtained from the National Cancer Institute (NCI) Developmental Therapeutics Program Chemical Repository (32). The FDA-approved anticancer drug set is available from the Developmental Therapeutics Program at https://dtp.cancer.gov/organization/dscb/obtaining/available plates.htm. […] The stock solutions were prepared in dimethyl sulfoxide (DMSO, Sigma-Aldrich, St. Louis, MO, cat. D2650), except for the platinum compounds which were prepared in saline (Quality Biological, Gaithersburg, MD, cat. 114-055-101), at 800-fold the tested concentration and stored at -70 degrees C prior to their use. All drugs and investigational agents were tested over a range starting from a high concentration at or near the clinical Cmax and decreasing in half-log increments. If the clinical Cmax for an agent had not been determined, the highest concentration tested was 10 microM (Table 1).
Cell Culture. All cells were maintained in an incubator at 37 degrees C and 5% CO2 with 95% humidity. The PDC lines were cultured according to standard operating procedures established by the NCI PDMR (https://pdmr.cancer.gov). Briefly, all PDCs were thawed and cultured in Matrigel-coated flasks prepared with a working solution of 1X Ham's F-12 nutrient mix, without supplementation (Invitrogen, Waltham, MA, cat. 11765054), 100 U/mL penicillin-streptomycin (Invitrogen, cat. 15140122), and 2.5% Matrigel (Corning Inc., Corning, NY, cat. 354248) for the first three passages. All PDCs were cultured in complete DMEM/F-12 media containing advanced DMEM/F-12 (Invitrogen, cat. 12634028), 4.9% defined fetal bovine serum, heat inactivated (HyClone Laboratories Inc., Logan, UT, cat. SH30070.03HI), 389 ng/mL hydrocortisone (Sigma-Aldrich, cat. H4001), 9.7 ng/mL human EGF recombinant protein (Invitrogen, cat. PHG0313), 23.4 microg/mL adenine (Sigma-Aldrich, cat. A2786), 97.3 U/mL penicillin-streptomycin (Invitrogen, cat. 15140122), 1.9 mM L-glutamine (Invitrogen, cat. 25030081), and 9.7 microM Y-27632 dihydrochloride (Tocris Bioscience, Bristol, United Kingdom, cat. 1254). The PDCs were cultured in complete DMEM/F12 media without 10 microM Y-27632 dihydrochloride for at least two passages prior to the screen. The established cell lines NCI-H1341 and […] were cultured in DMEM/F-12, HEPES (Invitrogen, cat. 11330032), 5% defined fetal bovine serum (HyClone Laboratories Inc., cat. SH30070.03), ITS premix universal culture supplement [insulin (5 microg/mL), transferrin (5 microg/mL), and selenious acid (5 ng/mL)] […]

[1] = second compound 0.1 µM, first compound 0.0316 µM
[2] = second compound 0.1 µM, first compound 0.1 µM
[3] = second compound 0.316 µM, first compound 0.0316 µM
[4] = second compound 0.316 µM, first compound 0.1 µM
[5] = second compound 1 µM, first compound 0.0316 µM
[6] = second compound 1 µM, first compound 0.1 µM
[7] = second compound 3.16 µM, first compound 0.0316 µM
[8] = second compound 3.16 µM, first compound 0.1 µM
[9] = second compound 10 µM, first compound 0.0316 µM
[10] = second compound 10 µM, first compound 0.1 µM
[11] = second compound 0.1 µM, first compound 0.316 µM
[12] = second compound 0.1 µM, first compound 1 µM
[13] = second compound 0.1 µM, first compound 3.16 µM
[14] = second compound 0.1 µM, first compound 10 µM
[15] = second compound 0.316 µM, first compound 0.316 µM
[16] = second compound 0.316 µM, first compound 1 µM
[17] = second compound 0.316 µM, first compound 3.16 µM
[18] = second compound 0.316 µM, first compound 10 µM
[19] = second compound 1 µM, first compound 0.316 µM
[20] = second compound 1 µM, first compound 1 µM
[21] = second compound 1 µM, first compound 3.16 µM
[22] = second compound 1 µM, first compound 10 µM
[23] = second compound 3.16 µM, first compound 0.316 µM
[24] = second compound 3.16 µM, first compound 1 µM
[25] = second compound 3.16 µM, first compound 3.16 µM
[26] = second compound 3.16 µM, first compound 10 µM
[27] = second compound 10 µM, first compound 0.316 µM
[28] = second compound 10 µM, first compound 1 µM
[29] = second compound 10 µM, first compound 3.16 µM
[30] = second compound 10 µM, first compound 10 µM

Q: With `CC[C@@]1(O)C(=O)OCc2c1cc1n(c2=O)Cc2cc3c(CN(C)C)c(O)ccc3nc2-1` + CC(CO)NC(=O)c1cc(-c2ccc(Cl)cc2)nn(-c2cnn(C)c2)c1=O as the molecule, how does the IC50 (second compound 0.1 µM) read?
A: 59 nM

Q: What about the IC50 (second compound 0.316 µM) of the same molecule?
A: 57.6 nM

Q: And the IC50 (second compound 1 µM)?
A: 60.8 nM

Q: What about the IC50 (second compound 3.16 µM) of the same molecule?
A: 53.6 nM

Q: What about the IC50 (second compound 10 µM) of the same molecule?
A: 51.8 nM

Q: And the viability, T/C (second compound 0.1 µM, first compound 0.000316 µM)?
A: 112%

Q: What about the viability, T/C (second compound 0.1 µM, first compound 0.001 µM) of the same molecule?
A: 119%

Q: What about the viability, T/C (second compound 0.1 µM, first compound 0.00316 µM) of the same molecule?
A: 111%

Q: And the viability, T/C (second compound 0.1 µM, first compound 0.01 µM)?
A: 115%

Q: What about the viability, T/C [1] of the same molecule?
A: 90.9%

Q: And the viability, T/C [2]?
A: 15.2%

Q: And the viability, T/C (second compound 0.316 µM, first compound 0.000316 µM)?
A: 106%

Q: What about the viability, T/C (second compound 0.316 µM, first compound 0.001 µM) of the same molecule?
A: 114%

Q: What about the viability, T/C (second compound 0.316 µM, first compound 0.00316 µM) of the same molecule?
A: 112%

Q: And the viability, T/C (second compound 0.316 µM, first compound 0.01 µM)?
A: 109%

Q: And the viability, T/C [3]?
A: 89.9%

Q: And the viability, T/C [4]?
A: 13.3%

Q: What about the viability, T/C (second compound 1 µM, first compound 0.000316 µM) of the same molecule?
A: 113%

Q: And the viability, T/C (second compound 1 µM, first compound 0.001 µM)?
A: 107%

Q: What about the viability, T/C (second compound 1 µM, first compound 0.00316 µM) of the same molecule?
A: 108%

Q: And the viability, T/C (second compound 1 µM, first compound 0.01 µM)?
A: 104%

Q: And the viability, T/C [5]?
A: 95.4%

Q: What about the viability, T/C [6] of the same molecule?
A: 15.2%

Q: And the viability, T/C (second compound 3.16 µM, first compound 0.000316 µM)?
A: 113%

Q: What about the viability, T/C (second compound 3.16 µM, first compound 0.001 µM) of the same molecule?
A: 116%

Q: What about the viability, T/C (second compound 3.16 µM, first compound 0.00316 µM) of the same molecule?
A: 109%

Q: What about the viability, T/C (second compound 3.16 µM, first compound 0.01 µM) of the same molecule?
A: 109%

Q: What about the viability, T/C [7] of the same molecule?
A: 80.9%

Q: What about the viability, T/C [8] of the same molecule?
A: 13.4%

Q: And the viability, T/C (second compound 10 µM, first compound 0.000316 µM)?
A: 118%

Q: What about the viability, T/C (second compound 10 µM, first compound 0.001 µM) of the same molecule?
A: 116%

Q: And the viability, T/C (second compound 10 µM, first compound 0.00316 µM)?
A: 118%

Q: And the viability, T/C (second compound 10 µM, first compound 0.01 µM)?
A: 113%

Q: What about the viability, T/C [9] of the same molecule?
A: 76.9%

Q: What about the viability, T/C [10] of the same molecule?
A: 14.1%

Q: Which results are given for `COc1cc(C2c3cc4c(cc3C(OC3OC5COC(C)OC5C(O)C3O)C3COC(=O)C23)OCO4)cc(OC)c1O` (stereo not given) + CC(CO)NC(=O)c1cc(-c2ccc(Cl)cc2)nn(-c2cnn(C)c2)c1=O?
A: IC50 (second compound 0.1 µM): 597 nM; IC50 (second compound 0.316 µM): 517 nM; IC50 (second compound 1 µM): 422 nM; IC50 (second compound 3.16 µM): 232 nM; IC50 (second compound 10 µM): 255 nM; viability, T/C [1]: 89.7%; viability, T/C [2]: 82%; viability, T/C [11]: 74.2%; viability, T/C [12]: 29.7%; viability, T/C [13]: 18.8%; viability, T/C [14]: 5.08%; viability, T/C [3]: 66%; viability, T/C [4]: 72.5%; viability, T/C [15]: 69.1%; viability, T/C [16]: 24.9%; viability, T/C [17]: 13.1%; viability, T/C [18]: 6.05%; viability, T/C [5]: 79.1%; viability, T/C [6]: 94.9%; viability, T/C [19]: 58.7%; viability, T/C [20]: 20.2%; viability, T/C [21]: 16%; viability, T/C [22]: 4.53%; viability, T/C [7]: 83.7%; viability, T/C [8]: 65.6%; viability, T/C [23]: 44.8%; viability, T/C [24]: 24.4%; viability, T/C [25]: 17.5%; viability, T/C [26]: 5.67%; viability, T/C [9]: 88.3%; viability, T/C [10]: 78.8%; viability, T/C [27]: 40.2%; viability, T/C [28]: 22.2%; viability, T/C [29]: 13.9%; viability, T/C [30]: 3.72%

Q: How did the IC50 (second compound 0.1 µM) turn out when `Nc1ccn(C2OC(CO)C(O)C2(F)F)c(=O)n1` (stereo not given) + CC(CO)NC(=O)c1cc(-c2ccc(Cl)cc2)nn(-c2cnn(C)c2)c1=O was run?
A: < 31.6 nM

Q: And the IC50 (second compound 0.316 µM)?
A: < 31.6 nM

Q: What about the IC50 (second compound 1 µM) of the same molecule?
A: < 31.6 nM

Q: What about the IC50 (second compound 3.16 µM) of the same molecule?
A: < 31.6 nM

Q: And the IC50 (second compound 10 µM)?
A: < 31.6 nM

Q: What about the viability, T/C [1] of the same molecule?
A: 4.79%

Q: What about the viability, T/C [2] of the same molecule?
A: 4.46%

Q: What about the viability, T/C [11] of the same molecule?
A: 2.56%

Q: And the viability, T/C [12]?
A: 4.39%

Q: What about the viability, T/C [13] of the same molecule?
A: 3.18%

Q: And the viability, T/C [14]?
A: 4.27%

Q: And the viability, T/C [3]?
A: 5.24%

Q: What about the viability, T/C [4] of the same molecule?
A: 4.16%

Q: What about the viability, T/C [15] of the same molecule?
A: 4.42%

Q: What about the viability, T/C [16] of the same molecule?
A: 3.7%

Q: What about the viability, T/C [17] of the same molecule?
A: 4.85%

Q: And the viability, T/C [18]?
A: 6.51%

Q: And the viability, T/C [5]?
A: 5.01%

Q: And the viability, T/C [6]?
A: 3.82%

Q: What about the viability, T/C [19] of the same molecule?
A: 4.34%

Q: And the viability, T/C [20]?
A: 4.23%

Q: And the viability, T/C [21]?
A: 4.33%

Q: And the viability, T/C [22]?
A: 4.11%

Q: And the viability, T/C [7]?
A: 5.21%

Q: And the viability, T/C [8]?
A: 4.49%

Q: What about the viability, T/C [23] of the same molecule?
A: 4.44%

Q: What about the viability, T/C [24] of the same molecule?
A: 4.62%

Q: What about the viability, T/C [25] of the same molecule?
A: 4.8%

Q: What about the viability, T/C [26] of the same molecule?
A: 5.89%

Q: And the viability, T/C [9]?
A: 4.43%

Q: What about the viability, T/C [10] of the same molecule?
A: 3.72%

Q: And the viability, T/C [27]?
A: 4.66%

Q: What about the viability, T/C [28] of the same molecule?
A: 4.02%

Q: And the viability, T/C [29]?
A: 5.31%

Q: And the viability, T/C [30]?
A: 6.31%
